# What was measured:
# [1] = target: T1, R15A-PP1c holophosphatase (R15A^325-636-PP1c) (Homo sapiens, UniProt O75807); assay: Holophosphatase SPR, compounds binding to reconstituted R15A-PP1c; conditions: holophosphatase reconstituted on SA chip; 20°C; mean ± SD; read-out: KD, steady-state affinity for R15A-PP1c
# T1 construct: cDNAs encoding amino acids 325-636 of R15A and 340-698 of R15B were cloned into pMAL-c5x; made in house; host or cells: R15A: E. coli BL21-Gold (DE3) pLysS; bio-PP1c: Sf9 insect cells (baculovirus)
# Experimental: Small molecules were stored as 50 mM stock solutions in 100% DMSO. […] If necessary the concentration range was adjusted to accurately determine the KD depending on the initial results. […] This was followed by 1 min stabilization period, to wash off any unspecific binding. […] After each dilution series, the surface was regenerated using 3 M NaCl for 90 s. […] In order to be able to correct for small variations in DMSO concentration between samples, eight solvent samples ranging from 0.06 to 8% DMSO were injected every 50th cycle. The flow cell temperature was 20°C.
# [2] = Monitoring Raphin1 stability in cell culture media; assay type: physicochemical; conditions: 10 μM, 37°C, 0-10 hr, mass spectrometry
# Experimental: Raphin1, 10 μM (from a 10 mM DMSO stock), was added to 20 mL of pre-warmed water or cell culture media, in tightly-sealed 20 mL glass vials to reduce evaporation and incubated in an incubator at 37°C. 50 μL samples were taken at 0, 1, 2, 5, 7.5 and 10 hr and added to an Eppendorf tube containing 200 μL of chilled acetonitrile and internal standards. The samples were stored in a −20°C freezer until the end of the study. The samples were then analyzed by mass spectrometry using a TQ-S micro Triple Quadrupole from Waters and compared against a standard curve prepared in the same manner as the samples.
# [3] = target: Adrenergic α2A (FAST-006A) receptor (Homo sapiens, UniProt P08913); assay: α2-adrenergic activity in cells expressing recombinant receptor (Euroscreen); assay type: cell-based; conditions: agonist testing, also videos of mice at 10 mg/kg
# Experimental: α2-adrenergic activity was measured by Euroscreen. Adrenergic α2A (FAST-006A) receptor cells grown 18 hr prior to the test in media without antibiotics were detached by gentle flushing with PBS-EDTA (5 mM EDTA), recovered by centrifugation and re-suspended in “assay buffer” (DMEM/HAM’s F12 with HEPES + 0.1% BSA protease free). Cells were incubated at RT for at least 4 hr with Coelenterazine h (Molecular Probes). Dose response curves with the reference compounds were performed before testing the compounds. For agonist testing, 50 μL of cell suspension was mixed with 50 μL of test compound or reference agonist plated in a 96-well plate. The resulting emission of light was recorded using the Hamamatsu Functional Drug Screening System 6000 (FDSS 6000). Agonist activity of test compound was expressed as a percentage of the activity of the reference agonist at its EC100 concentration.
# [4] = Pharmacokinetics after single oral administration in mice; assay type: in vivo; conditions: mouse
# Experimental: The acetate salts of Raphin1 or GBZ were dissolved in water and sonicated for 10 min. The solution was aliquoted and kept at −20°C until use. Once thawed a tube was kept at 4°C and used within 24 hr. The compounds were administered by oral gavage.
# Raphin1 was administered at 2 mg/kg (unless otherwise specified). Mice received a single dose or were treated chronically – one time per day. Control mice were treated with vehicle (water) only.
# Pharmacokinetics studies were performed by XenoGesis Ldt. Raphin1 was administrated orally in 6 weeks old treatment- and test-naive C57BL/6J males. Plasma samples were prepared by protein precipitation with methanol containing internal standards. Tissues were weighed and prepared by homogenization (1:3 in phosphate buffered saline) and protein precipitated with methanol containing internal standard. Following the addition of methanol, plasma and tissue samples were placed at −20°C for ≥ 1 hr (or overnight) to allow proteins to precipitate. The samples were then centrifuged at 2,500 x g (3,400 rpm) for 20 min at 4°C. The supernatants were analyzed by LC-MS/MS.
# [5] = Glucose tolerance test in wild-type mice; assay type: in vivo, mouse; conditions: 2 mg/kg daily for 8 weeks
# Experimental: Treatment- and test-naive 4 weeks old C3H/B6 males were used. Raphin1 was administered to mice daily for 8 weeks before the test. After the overnight 14 hr starvation mice were injected intraperitoneally with D-glucose (Sigma-Aldrich) at 2 g glucose/kg body weight. Right before and at the indicated time points after the injection blood samples were collected from the tail vein and the blood glucose concentration was determined using The Accu-Chek Aviva Blood Glucose Meter (Roche).
# [6] = target: R15A (Homo sapiens, UniProt O75807); assay: R15A levels on immunoblots of HeLa cell lysates; assay type: cell-based; parameters: endogenous in cells; host or cells: HeLa; conditions: HeLa cells, Raphin1 10 μM
# Experimental: HeLa or MEF cells (90,000 cells/mL) were plated in 12-well plates (1 mL/well). The following day cells were treated as indicated; the medium was removed, fresh medium containing compound added and incubated at 37°C for the times indicated. The time course was performed in reverse order to facilitate collecting all samples at the same time. At the end of treatment cells were washed two times with ice-cold PBS and lysed in 150 μL Laemmli Buffer. Lysates were transferred to 1.5 mL eppendorf tubes, boiled at 95°C for 5 min, sonicated and resolved on Bolt SDS-PAGE 4%–12% Bis-Tris gels (ThermoFisher Scientific). Proteins were transferred to the nitrocellulose membrane using the iBlot 2 system (ThermoFisher Scientific). Membrane was blocked in 5% skimmed milk for 30 min and then probed with primary antibodies followed by incubation with the appropriate horseradish peroxidase-conjugated secondary antibodies (Promega). Proteins were visualized using ECL Prime (GE Healthcare) and imaged in the Chemi-Smart 5000 (Vilber-Lourmat, France) or ChemiDoc Touch (BioRad). Bands were quantified using ImageJ (NIH, USA). […]
# T1 sequence (O75807 325-636, stated change not applied): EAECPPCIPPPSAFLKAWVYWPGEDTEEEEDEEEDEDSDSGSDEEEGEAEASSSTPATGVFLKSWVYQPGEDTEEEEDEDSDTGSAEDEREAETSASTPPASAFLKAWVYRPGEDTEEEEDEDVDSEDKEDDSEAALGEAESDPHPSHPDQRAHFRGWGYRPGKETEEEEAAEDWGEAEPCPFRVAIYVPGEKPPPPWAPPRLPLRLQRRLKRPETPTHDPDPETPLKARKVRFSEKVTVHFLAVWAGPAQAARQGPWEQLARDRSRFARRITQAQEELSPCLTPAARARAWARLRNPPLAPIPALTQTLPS
# T1 sequence (P36873 1-322 partner): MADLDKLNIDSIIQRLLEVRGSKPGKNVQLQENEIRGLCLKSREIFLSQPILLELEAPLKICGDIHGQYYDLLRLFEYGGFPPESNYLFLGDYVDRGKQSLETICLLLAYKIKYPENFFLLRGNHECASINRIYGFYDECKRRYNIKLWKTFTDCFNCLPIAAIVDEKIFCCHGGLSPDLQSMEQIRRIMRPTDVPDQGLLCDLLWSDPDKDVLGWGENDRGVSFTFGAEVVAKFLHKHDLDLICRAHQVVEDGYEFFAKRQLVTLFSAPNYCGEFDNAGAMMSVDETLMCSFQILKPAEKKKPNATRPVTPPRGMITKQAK
# Chain of Adrenergic α2A (FAST-006A) receptor (P08913 whole entry): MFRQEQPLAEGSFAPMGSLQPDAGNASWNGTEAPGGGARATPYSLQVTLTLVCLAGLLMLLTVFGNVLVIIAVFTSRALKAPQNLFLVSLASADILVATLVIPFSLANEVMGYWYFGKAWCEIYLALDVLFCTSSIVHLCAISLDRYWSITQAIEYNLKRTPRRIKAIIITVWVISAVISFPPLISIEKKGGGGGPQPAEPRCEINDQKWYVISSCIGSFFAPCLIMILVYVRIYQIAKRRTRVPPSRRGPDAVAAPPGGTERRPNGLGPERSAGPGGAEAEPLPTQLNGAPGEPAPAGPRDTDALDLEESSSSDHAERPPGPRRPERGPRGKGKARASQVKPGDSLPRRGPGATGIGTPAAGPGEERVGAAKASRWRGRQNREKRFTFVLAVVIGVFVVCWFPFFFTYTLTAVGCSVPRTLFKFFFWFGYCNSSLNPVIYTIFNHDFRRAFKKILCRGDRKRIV
# Chain of R15A (O75807 whole entry, stated change not applied): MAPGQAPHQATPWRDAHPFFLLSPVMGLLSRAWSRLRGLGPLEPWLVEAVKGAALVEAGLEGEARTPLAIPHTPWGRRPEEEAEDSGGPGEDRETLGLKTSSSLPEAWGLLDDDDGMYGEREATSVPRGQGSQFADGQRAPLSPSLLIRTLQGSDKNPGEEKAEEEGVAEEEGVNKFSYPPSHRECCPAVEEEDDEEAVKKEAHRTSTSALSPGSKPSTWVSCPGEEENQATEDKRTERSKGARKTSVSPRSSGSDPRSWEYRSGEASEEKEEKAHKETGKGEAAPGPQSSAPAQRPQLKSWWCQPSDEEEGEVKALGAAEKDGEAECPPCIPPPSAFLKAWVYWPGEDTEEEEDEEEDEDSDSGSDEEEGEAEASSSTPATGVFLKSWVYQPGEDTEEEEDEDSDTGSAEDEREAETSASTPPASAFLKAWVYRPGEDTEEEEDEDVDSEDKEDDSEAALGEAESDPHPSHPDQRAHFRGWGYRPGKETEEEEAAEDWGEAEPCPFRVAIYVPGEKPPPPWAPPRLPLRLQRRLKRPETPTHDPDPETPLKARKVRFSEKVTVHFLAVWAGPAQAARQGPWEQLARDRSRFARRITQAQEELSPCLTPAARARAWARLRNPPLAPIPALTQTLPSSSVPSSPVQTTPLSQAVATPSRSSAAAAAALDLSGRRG
compound,measurement,setting,value
"[H]/N=C(\N)NN=Cc1cccc(Cl)c1Cl [Raphin1, (E)-2-(2,3-dichlorobenzylidene)hydrazine-1-carboximidamide]",Kd,[1],977 nM
same,Stability in cell culture media over time,[2],stable
same,α2-adrenergic activity,[3],lacked
same,half-life,"[4]; male, C57BL/6J, brain, single oral dose 2 mg/kg",240 to 360 min
same,Oral bioavailability (in words),[4],orally bioavailable
same,Blood-brain barrier crossing,[4]; single oral dose 2 mg/kg,crossed the blood-brain barrier
same,Peak concentration in the brain,[4]; single oral dose 2 mg/kg,~1.5 µM
same,Adverse effects on glucose tolerance,[5],no obvious adverse effects
same,R15A levels (decrease),[6],not observed
